Some test systems named below: ACHN; BT-549; EKVX; HCT-116; HCT-15; HOP-62; IGROV-1; M14; MDA-MB-231; MOLT-4; NCI/ADR-RES; OVCAR-4; PC-3; SNB-19; T47D; UACC-257; UO-31; OVCAR-3; OVCAR-5; NCI-H522.
What all share (assay): inhibition of tumour cell growth, NCI panel, 48 h

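Briefly, cells in 96-well plates were exposed to five compound concentrations for 48 h, and endpoints were estimated by linear interpolation. The concentration for 50% growth inhibition is given as GI50.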 Active and inactive are the calls of the source. Rule as the data show it: active = GI50 up to about 1.1 µM and inactive = higher.

For `CCOC(=O)c1nc2ccc(C(F)(F)F)cc2nc1Oc1ccc(F)cc1`, the GI50 with ACHN is > 100 µM (inactive); with BT-549 it was > 100 µM (inactive); with EKVX it was > 100 µM (inactive); with HCT-116 it was > 100 µM (inactive); with HCT-15 it was more than 100 µM; in the assay on HOP-62, > 100 µM (inactive). The GI50 in the assay on IGROV-1, in the assay on M14, in the assay with MDA-MB-231, in the assay with MOLT-4, in the assay with NCI/ADR-RES and in the assay with OVCAR-4 was > 100 µM (inactive) each time. Also, the GI50 with PC-3, in the assay with SNB-19, in the assay with T47D, in the assay with UACC-257 and with UO-31 was > 100 µM (inactive) throughout.
In the case of `Cc1n[nH]c(=O)n1/N=C/c1cccc(Cl)c1`, the GI50 is > 100 µM (inactive) in the assay with ACHN; 47.2 µM (inactive) with BT-549; 31 µM (inactive) with EKVX; > 100 µM (inactive) in the assay with HCT-116; more than 100 µM with HCT-15; 49.3 µM (inactive) with HOP-62. Further, the GI50 with M14 is > 100 µM (inactive); in the assay on MDA-MB-231, > 100 µM (inactive); in the assay with MOLT-4 it was 49.3 µM (inactive); in the assay with NCI/ADR-RES, > 100 µM (inactive); with OVCAR-3, > 100 µM (inactive); in the assay on OVCAR-4 it was 76.9 µM (inactive). For the same molecule, the GI50 in the assay on OVCAR-5, with PC-3, in the assay with SNB-19, in the assay on T47D, in the assay with UACC-257 and with UO-31 was > 100 µM (inactive) in each case.
Regarding `O=C1c2ccccc2C(=O)c2sc(Nc3ccccc3Cl)nc21`, the GI50 was 5.68 µM (inactive) with ACHN; 16 µM (inactive) in the assay on BT-549; 14.3 µM (inactive) in the assay on EKVX; 10.7 µM (inactive) with HCT-116; 9.38 µM in the assay on HCT-15; 16.7 µM (inactive) in the assay on HOP-62. Besides, the GI50 is 13.9 µM (inactive) in the assay with IGROV-1; 5.36 µM (inactive) with M14; 3.78 µM (inactive) in the assay on MDA-MB-231; 3.93 µM (inactive) in the assay with MOLT-4; 3.69 µM (inactive) in the assay on NCI-H522; 10.7 µM (inactive) in the assay with OVCAR-3. Further, the GI50 was 8.18 µM (inactive) in the assay with OVCAR-4; 19.8 µM (inactive) in the assay with OVCAR-5; 12.7 µM (inactive) in the assay on PC-3; 14.5 µM (inactive) in the assay on SNB-19; 11.1 µM (inactive) with T47D; 8.34 µM (inactive) with UACC-257. For the same molecule, in the assay with UO-31, the GI50 is 10.6 µM (inactive).
As to `CC(=O)C(=C(I)I)c1ccccc1`, the GI50 in the assay with ACHN was 18.3 µM (inactive); in the assay with EKVX it was 25.7 µM (inactive); in the assay on HCT-116, 15.4 µM (inactive); in the assay on HCT-15, 29.3 µM; with HOP-62 it was 20.9 µM (inactive); in the assay on IGROV-1 it was 26.1 µM (inactive). In addition, the GI50 with M14 is 14.5 µM (inactive); in the assay on MDA-MB-231, 22.3 µM (inactive); in the assay with MOLT-4, 13.4 µM (inactive); with NCI-H522 it was 12.7 µM (inactive); in the assay on NCI/ADR-RES, 21.1 µM (inactive); in the assay on OVCAR-3, 16.7 µM (inactive). Also, the GI50 in the assay with OVCAR-4 was 16.1 µM (inactive); in the assay on OVCAR-5, 23.3 µM (inactive); in the assay on PC-3, 31.5 µM (inactive); in the assay on SNB-19 it was 18.5 µM (inactive); in the assay with T47D, 20.4 µM (inactive); in the assay on UACC-257 it was 16.7 µM (inactive). Further, the GI50 in the assay on UO-31 was 19.2 µM (inactive).
`CSc1c(C(=O)Nc2ccc(C)cc2)c(N)nn1-c1ccccc1`: the GI50 with ACHN is 43.8 µM (inactive); with BT-549, 43.2 µM (inactive); in the assay with EKVX, 49.4 µM (inactive); in the assay with HCT-116 it was 49.4 µM (inactive); with HCT-15 it was more than 100 µM; in the assay with HOP-62, 57.7 µM (inactive). The GI50 in the assay on IGROV-1 was 36.1 µM (inactive); in the assay on M14, 36.7 µM (inactive); in the assay on MDA-MB-231, 40.6 µM (inactive); with MOLT-4, > 100 µM (inactive); in the assay with NCI-H522, 71.4 µM (inactive); with OVCAR-3, > 100 µM (inactive). Besides, the GI50 in the assay on OVCAR-4 was 13 µM (inactive); in the assay with OVCAR-5, > 100 µM (inactive); in the assay on PC-3 it was 39.5 µM (inactive); in the assay with SNB-19, 26.7 µM (inactive); with T47D it was 98.9 µM (inactive); in the assay with UACC-257, 54 µM (inactive). Besides, the GI50 in the assay on UO-31 is > 100 µM (inactive).
Consider `CCC1=C(c2ccc(OC)cc2)CC[C@]2(CCNC2=O)[C@@H]1C`, for which the GI50 is 25.6 µM (inactive) in the assay on ACHN; 28.1 µM (inactive) with EKVX; 23.6 µM (inactive) with HCT-116; 28.7 µM in the assay on HCT-15; 51.2 µM (inactive) in the assay with HOP-62; 40.3 µM (inactive) in the assay on IGROV-1. For the same molecule, the GI50 in the assay with M14 was 26.4 µM (inactive); in the assay on MDA-MB-231, 39.1 µM (inactive); in the assay with MOLT-4 it was 15.8 µM (inactive); with NCI-H522 it was 18.3 µM (inactive); with NCI/ADR-RES, 31.2 µM (inactive); in the assay on OVCAR-3, 22.7 µM (inactive). Further, the GI50 in the assay with OVCAR-4 was 22 µM (inactive); in the assay with OVCAR-5, 31.1 µM (inactive); in the assay on PC-3 it was 26.4 µM (inactive); in the assay on SNB-19 it was 34.6 µM (inactive); in the assay with T47D it was 32.4 µM (inactive); with UACC-257, 23.7 µM (inactive). Further, the GI50 with UO-31 was 21.4 µM (inactive).
Take `COc1ccc(N/N=C/C2=CC(C)(C)C(C#N)(C#N)C(O)=C2C#N)cc1`: the GI50 is 40.4 µM (inactive) with ACHN; 66.5 µM (inactive) in the assay with EKVX; 39 µM (inactive) in the assay on HCT-116; 14.1 µM with HCT-15; 43.6 µM (inactive) in the assay with HOP-62; 46.9 µM (inactive) in the assay on IGROV-1. Further, the GI50 in the assay with M14 is 54.2 µM (inactive); in the assay with MDA-MB-231, 34.3 µM (inactive); in the assay on MOLT-4, 28.4 µM (inactive); in the assay on NCI-H522, 37.7 µM (inactive); in the assay on NCI/ADR-RES, 37 µM (inactive); in the assay on OVCAR-3, 21.6 µM (inactive). Further, the GI50 was 50 µM (inactive) with OVCAR-4; 69.8 µM (inactive) with OVCAR-5; 27.8 µM (inactive) in the assay with PC-3; 56.6 µM (inactive) in the assay with SNB-19; 35.6 µM (inactive) in the assay with T47D; 25 µM (inactive) in the assay with UACC-257. Besides, the GI50 in the assay with UO-31 is 20.5 µM (inactive).
With `CCN(CC)C(=S)SNCCc1ccc(S(N)(=O)=O)cc1`, the GI50 is 17.9 µM (inactive) in the assay on ACHN; 16 µM (inactive) with BT-549; 20 µM (inactive) in the assay on EKVX; 13.3 µM (inactive) with HCT-116; 16.8 µM in the assay with HCT-15; 12.2 µM (inactive) with HOP-62. The GI50 in the assay with M14 is 10.9 µM (inactive); with MDA-MB-231, 14.7 µM (inactive); with NCI/ADR-RES, 17.4 µM (inactive); in the assay on OVCAR-3, 18.9 µM (inactive); in the assay with OVCAR-4, 14.4 µM (inactive); in the assay with OVCAR-5, 15.6 µM (inactive). Further, the GI50 with PC-3 was 13.9 µM (inactive); with SNB-19, 20 µM (inactive); in the assay on T47D it was 18.1 µM (inactive); in the assay on UACC-257 it was 15.5 µM (inactive); in the assay with UO-31 it was 13.1 µM (inactive).
